Results published in ChEMBL document CHEMBL2203143, “Synthesis and antiproliferative activities of ottelione a analogues” (ACS Med Chem Lett, 2012).
Calls of active or inactive are those of the source. The calls are words filed in the database; no cut-off is given here.

Biological target: T1, Tubulin (Sus scrofa) (UniProt P02554+P02550)
Experiment: Displacement of [3H]colchicine from tubulin in pig brain at 10 uM after 16 hrs by scintillation proximity assay
Conditions: not given

T1 sequence (P02550 whole entry, looked up): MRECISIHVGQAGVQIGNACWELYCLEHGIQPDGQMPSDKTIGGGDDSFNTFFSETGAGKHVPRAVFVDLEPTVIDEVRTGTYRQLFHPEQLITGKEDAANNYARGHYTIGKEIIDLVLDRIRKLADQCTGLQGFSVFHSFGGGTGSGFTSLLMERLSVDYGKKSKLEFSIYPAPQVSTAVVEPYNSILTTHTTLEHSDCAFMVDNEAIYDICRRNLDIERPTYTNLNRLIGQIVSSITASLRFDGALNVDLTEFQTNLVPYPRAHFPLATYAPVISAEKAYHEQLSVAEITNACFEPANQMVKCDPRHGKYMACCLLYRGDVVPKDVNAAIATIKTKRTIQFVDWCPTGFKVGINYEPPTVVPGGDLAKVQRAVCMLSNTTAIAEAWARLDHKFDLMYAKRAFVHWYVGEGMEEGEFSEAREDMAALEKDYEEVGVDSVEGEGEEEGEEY
T1 sequence (P02554 whole entry, looked up): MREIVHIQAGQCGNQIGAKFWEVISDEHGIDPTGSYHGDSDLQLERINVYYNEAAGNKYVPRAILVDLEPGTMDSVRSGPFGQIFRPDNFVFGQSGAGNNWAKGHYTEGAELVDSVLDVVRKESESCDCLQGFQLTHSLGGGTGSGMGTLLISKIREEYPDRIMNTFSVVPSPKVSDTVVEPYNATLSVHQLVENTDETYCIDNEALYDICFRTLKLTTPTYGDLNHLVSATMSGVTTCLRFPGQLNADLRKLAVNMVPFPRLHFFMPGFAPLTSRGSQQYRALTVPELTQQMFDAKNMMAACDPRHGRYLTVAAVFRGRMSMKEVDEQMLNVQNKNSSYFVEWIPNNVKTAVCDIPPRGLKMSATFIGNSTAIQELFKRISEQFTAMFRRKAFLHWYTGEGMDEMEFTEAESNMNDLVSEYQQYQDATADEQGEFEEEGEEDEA

Compound | inhibition
C=C1C=CC(=O)[C@@H]2[C@H](Cc3cc(OC)c(OC)c(OC)c3)CC[C@H]12 (racemic) | 8.93%
C=C1C=CC(=O)[C@@H]2[C@H](Cc3ccc(O)c(F)c3)CC[C@H]12 (racemic) | 37.3%
C=C1C=CC(=O)[C@@H]2[C@H](Cc3ccc(F)c(F)c3)CC[C@H]12 (racemic) | 61.7%
C=C1C=CC(=O)[C@@H]2[C@H](Cc3ccc(OC)c(O)c3)CC[C@H]12 (racemic) | 95.8%
COc1ccc(C[C@@H]2CC[C@@H]3CC=CC(=O)[C@@H]32)cc1O (racemic) | 39.2%
CC=C1C=CC(=O)[C@@H]2[C@H](Cc3ccc(OC)c(O)c3)CC[C@H]12 (racemic) | 96.1%
C=C1C=CC(=O)[C@@H]2[C@H](Cc3ccccc3)CC[C@H]12 (racemic) | 43.2%

Next, values leading:

inhibition | Compound
69.3% | C=C1C=CC(=O)[C@@H]2[C@H](Cc3ccc(OCOC)cc3)CC[C@H]12 (racemic)
71.6% | C=C1C=CC(=O)[C@@H]2[C@H](Cc3ccc(O)cc3)CC[C@H]12 (racemic)
98.3% | C=C[C@@H]1C[C@@H](Cc2ccc(OC)c(O)c2)[C@H]2C(=O)C=CC(=C)[C@H]21 (racemic)
68.9% | C=C1C=CC(=O)[C@@H]2[C@H](Cc3ccc(OCOC)c(F)c3)CC[C@H]12 (racemic)
97.1% | C=C1C=CC(=O)[C@@H]2[C@H](Cc3ccc(OC)c(F)c3)CC[C@H]12 (racemic)

Tested on: COLO 205
Experiment: Ratio of ottelione A IC50 to compound IC50 for human COLO205 cells after 72 hrs by CellTiter96 assay
Type: functional
Conditions: not given

Compound | Ratio IC50
C=C1C=CC(=O)[C@@H]2[C@H](Cc3ccc(OC)c(F)c3)CC[C@H]12 (racemic) | 6

Biological target: T1, Tubulin (Sus scrofa)
Experiment: Inhibition of pig neuronal tubulin polymerization at 10 uM by fluorescence analysis
Type: protein assay
Conditions: not given

Compound | inhibition
C=C1C=CC(=O)[C@@H]2[C@H](Cc3ccc(OC)c(F)c3)CC[C@H]12 (racemic) | Active
C=C1C=CC(=O)[C@@H]2[C@H](Cc3ccc(OC)c(O)c3)CC[C@H]12 (racemic) | Active
C=C[C@@H]1C[C@@H](Cc2ccc(OC)c(O)c2)[C@H]2C(=O)C=CC(=C)[C@H]21 (racemic) | Active

Tested on: COLO 205
Experiment: Antiproliferative activity against human COLO205 cells assessed as cell viability after 72 hrs by CellTiter96 assay
Type: functional, cell-based
Conditions: COLO 205, 72 h

Compound | IC50
C=C1C=CC(=O)[C@@H]2[C@H](Cc3cc(OC)c(OC)c(OC)c3)CC[C@H]12 (racemic) | > 1 µM
C=C1C=CC(=O)[C@@H]2[C@H](Cc3ccc(O)c(F)c3)CC[C@H]12 (racemic) | 3 µM
C=C1C=CC(=O)[C@@H]2[C@H](Cc3ccc(F)c(F)c3)CC[C@H]12 (racemic) | 0.428 µM
C=C1C=CC(=O)[C@@H]2[C@H](Cc3ccc(OC)c(O)c3)CC[C@H]12 (racemic) | 0.244 µM
COc1ccc(C[C@@H]2CC[C@@H]3CC=CC(=O)[C@@H]32)cc1O (racemic) | > 1 µM
CC=C1C=CC(=O)[C@@H]2[C@H](Cc3ccc(OC)c(O)c3)CC[C@H]12 (racemic) | 0.739 µM
C=C1C=CC(=O)[C@@H]2[C@H](Cc3ccccc3)CC[C@H]12 (racemic) | 0.547 µM

These reach a lower IC50. Values come first.

IC50 | Compound
0.219 µM | C=C1C=CC(=O)[C@@H]2[C@H](Cc3ccc(OCOC)cc3)CC[C@H]12 (racemic)
0.218 µM | C=C1C=CC(=O)[C@@H]2[C@H](Cc3ccc(O)cc3)CC[C@H]12 (racemic)
0.0928 µM | C=C[C@@H]1C[C@@H](Cc2ccc(OC)c(O)c2)[C@H]2C(=O)C=CC(=C)[C@H]21 (racemic)
0.0757 µM | C=C1C=CC(=O)[C@@H]2[C@H](Cc3ccc(OCOC)c(F)c3)CC[C@H]12 (racemic)
0.00245 µM | C=C1C=CC(=O)[C@@H]2[C@H](Cc3ccc(OC)c(F)c3)CC[C@H]12 (racemic)

Tested on: NCI-H460
Experiment: Ratio of ottelione A IC50 to compound IC50 for human NCI-H460 cells after 72 hrs by CellTiter96 assay
Type: functional
Conditions: not given

Compound | Ratio IC50
C=C1C=CC(=O)[C@@H]2[C@H](Cc3ccc(OC)c(F)c3)CC[C@H]12 (racemic) | 6

Tested on: HCT-116
Experiment: Antiproliferative activity against human HCT116 cells assessed as cell viability after 72 hrs by CellTiter96 assay
Type: functional, cell-based
Conditions: HCT-116, 72 h

Compound | IC50
C=C1C=CC(=O)[C@@H]2[C@H](Cc3cc(OC)c(OC)c(OC)c3)CC[C@H]12 (racemic) | > 1 µM
C=C1C=CC(=O)[C@@H]2[C@H](Cc3ccc(O)c(F)c3)CC[C@H]12 (racemic) | 0.126 µM
C=C1C=CC(=O)[C@@H]2[C@H](Cc3ccc(F)c(F)c3)CC[C@H]12 (racemic) | 0.235 µM
C=C1C=CC(=O)[C@@H]2[C@H](Cc3ccc(OC)c(O)c3)CC[C@H]12 (racemic) | 0.00301 µM
COc1ccc(C[C@@H]2CC[C@@H]3CC=CC(=O)[C@@H]32)cc1O (racemic) | > 1 µM
CC=C1C=CC(=O)[C@@H]2[C@H](Cc3ccc(OC)c(O)c3)CC[C@H]12 (racemic) | 0.014 µM
C=C1C=CC(=O)[C@@H]2[C@H](Cc3ccccc3)CC[C@H]12 (racemic) | 0.257 µM

Next, values leading:

IC50 | Compound
0.129 µM | C=C1C=CC(=O)[C@@H]2[C@H](Cc3ccc(OCOC)cc3)CC[C@H]12 (racemic)
0.0385 µM | C=C1C=CC(=O)[C@@H]2[C@H](Cc3ccc(O)cc3)CC[C@H]12 (racemic)
0.00074 µM | C=C[C@@H]1C[C@@H](Cc2ccc(OC)c(O)c2)[C@H]2C(=O)C=CC(=C)[C@H]21 (racemic)
0.0774 µM | C=C1C=CC(=O)[C@@H]2[C@H](Cc3ccc(OCOC)c(F)c3)CC[C@H]12 (racemic)
0.00111 µM | C=C1C=CC(=O)[C@@H]2[C@H](Cc3ccc(OC)c(F)c3)CC[C@H]12 (racemic)

Tested on: MCF7
Experiment: Antiproliferative activity against human MCF7 cells assessed as cell viability after 72 hrs by CellTiter96 assay
Type: functional, cell-based
Conditions: MCF7, 72 h

Compound | IC50
C=C1C=CC(=O)[C@@H]2[C@H](Cc3cc(OC)c(OC)c(OC)c3)CC[C@H]12 (racemic) | > 1 µM
C=C1C=CC(=O)[C@@H]2[C@H](Cc3ccc(O)c(F)c3)CC[C@H]12 (racemic) | 0.147 µM
C=C1C=CC(=O)[C@@H]2[C@H](Cc3ccc(F)c(F)c3)CC[C@H]12 (racemic) | 0.233 µM
C=C1C=CC(=O)[C@@H]2[C@H](Cc3ccc(OC)c(O)c3)CC[C@H]12 (racemic) | 0.00373 µM
COc1ccc(C[C@@H]2CC[C@@H]3CC=CC(=O)[C@@H]32)cc1O (racemic) | > 1 µM
CC=C1C=CC(=O)[C@@H]2[C@H](Cc3ccc(OC)c(O)c3)CC[C@H]12 (racemic) | 0.0263 µM
C=C1C=CC(=O)[C@@H]2[C@H](Cc3ccccc3)CC[C@H]12 (racemic) | 0.26 µM

Now from value to molecule:

IC50 | Compound
0.0636 µM | C=C1C=CC(=O)[C@@H]2[C@H](Cc3ccc(OCOC)cc3)CC[C@H]12 (racemic)
0.0338 µM | C=C1C=CC(=O)[C@@H]2[C@H](Cc3ccc(O)cc3)CC[C@H]12 (racemic)
0.00117 µM | C=C[C@@H]1C[C@@H](Cc2ccc(OC)c(O)c2)[C@H]2C(=O)C=CC(=C)[C@H]21 (racemic)
0.0772 µM | C=C1C=CC(=O)[C@@H]2[C@H](Cc3ccc(OCOC)c(F)c3)CC[C@H]12 (racemic)
0.00013 µM | C=C1C=CC(=O)[C@@H]2[C@H](Cc3ccc(OC)c(F)c3)CC[C@H]12 (racemic)

Tested on: NCI-H460
Experiment: Antiproliferative activity against human NCI-H460 cells assessed as cell viability after 72 hrs by CellTiter96 assay
Type: functional, cell-based
Conditions: NCI-H460, 72 h

Compound | IC50
C=C1C=CC(=O)[C@@H]2[C@H](Cc3cc(OC)c(OC)c(OC)c3)CC[C@H]12 (racemic) | > 1 µM
C=C1C=CC(=O)[C@@H]2[C@H](Cc3ccc(O)c(F)c3)CC[C@H]12 (racemic) | 0.229 µM
C=C1C=CC(=O)[C@@H]2[C@H](Cc3ccc(F)c(F)c3)CC[C@H]12 (racemic) | 0.511 µM
C=C1C=CC(=O)[C@@H]2[C@H](Cc3ccc(OC)c(O)c3)CC[C@H]12 (racemic) | 0.016 µM
COc1ccc(C[C@@H]2CC[C@@H]3CC=CC(=O)[C@@H]32)cc1O (racemic) | > 1 µM
CC=C1C=CC(=O)[C@@H]2[C@H](Cc3ccc(OC)c(O)c3)CC[C@H]12 (racemic) | 0.0246 µM
C=C1C=CC(=O)[C@@H]2[C@H](Cc3ccccc3)CC[C@H]12 (racemic) | 0.678 µM

More lines, now with the values ahead:

IC50 | Compound
0.226 µM | C=C1C=CC(=O)[C@@H]2[C@H](Cc3ccc(OCOC)cc3)CC[C@H]12 (racemic)
0.0776 µM | C=C1C=CC(=O)[C@@H]2[C@H](Cc3ccc(O)cc3)CC[C@H]12 (racemic)
0.0145 µM | C=C[C@@H]1C[C@@H](Cc2ccc(OC)c(O)c2)[C@H]2C(=O)C=CC(=C)[C@H]21 (racemic)
0.106 µM | C=C1C=CC(=O)[C@@H]2[C@H](Cc3ccc(OCOC)c(F)c3)CC[C@H]12 (racemic)
0.00262 µM | C=C1C=CC(=O)[C@@H]2[C@H](Cc3ccc(OC)c(F)c3)CC[C@H]12 (racemic)

Tested on: KB
Experiment: Antiproliferative activity against human KB cells assessed as cell viability after 72 hrs by CellTiter96 assay
Type: functional, cell-based
Conditions: not given

Compound | IC50
C=C1C=CC(=O)[C@@H]2[C@H](Cc3cc(OC)c(OC)c(OC)c3)CC[C@H]12 (racemic) | > 1 µM
C=C1C=CC(=O)[C@@H]2[C@H](Cc3ccc(O)c(F)c3)CC[C@H]12 (racemic) | 0.156 µM
C=C1C=CC(=O)[C@@H]2[C@H](Cc3ccc(F)c(F)c3)CC[C@H]12 (racemic) | 0.478 µM
C=C1C=CC(=O)[C@@H]2[C@H](Cc3ccc(OC)c(O)c3)CC[C@H]12 (racemic) | 0.00494 µM
COc1ccc(C[C@@H]2CC[C@@H]3CC=CC(=O)[C@@H]32)cc1O (racemic) | > 1 µM
CC=C1C=CC(=O)[C@@H]2[C@H](Cc3ccc(OC)c(O)c3)CC[C@H]12 (racemic) | 0.0226 µM
C=C1C=CC(=O)[C@@H]2[C@H](Cc3ccccc3)CC[C@H]12 (racemic) | 0.591 µM

The next lines start with the values.

IC50 | Compound
0.208 µM | C=C1C=CC(=O)[C@@H]2[C@H](Cc3ccc(OCOC)cc3)CC[C@H]12 (racemic)
0.0688 µM | C=C1C=CC(=O)[C@@H]2[C@H](Cc3ccc(O)cc3)CC[C@H]12 (racemic)
0.00159 µM | C=C[C@@H]1C[C@@H](Cc2ccc(OC)c(O)c2)[C@H]2C(=O)C=CC(=C)[C@H]21 (racemic)
0.0766 µM | C=C1C=CC(=O)[C@@H]2[C@H](Cc3ccc(OCOC)c(F)c3)CC[C@H]12 (racemic)
0.00277 µM | C=C1C=CC(=O)[C@@H]2[C@H](Cc3ccc(OC)c(F)c3)CC[C@H]12 (racemic)

Tested on: MCF7
Experiment: Ratio of ottelione A IC50 to compound IC50 for human MCF7 cells after 72 hrs by CellTiter96 assay
Type: functional
Conditions: not given

Compound | Ratio IC50
C=C1C=CC(=O)[C@@H]2[C@H](Cc3ccc(OC)c(F)c3)CC[C@H]12 (racemic) | 6

Tested on: A-375
Experiment: Antiproliferative activity against human A375 cells assessed as cell viability after 72 hrs by CellTiter96 assay
Type: functional, cell-based
Conditions: A-375, 72 h

Compound | IC50
C=C1C=CC(=O)[C@@H]2[C@H](Cc3cc(OC)c(OC)c(OC)c3)CC[C@H]12 (racemic) | > 1 µM
C=C1C=CC(=O)[C@@H]2[C@H](Cc3ccc(O)c(F)c3)CC[C@H]12 (racemic) | 0.0984 µM
C=C1C=CC(=O)[C@@H]2[C@H](Cc3ccc(F)c(F)c3)CC[C@H]12 (racemic) | 0.222 µM
C=C1C=CC(=O)[C@@H]2[C@H](Cc3ccc(OC)c(O)c3)CC[C@H]12 (racemic) | 0.00107 µM
COc1ccc(C[C@@H]2CC[C@@H]3CC=CC(=O)[C@@H]32)cc1O (racemic) | 0.914 µM
CC=C1C=CC(=O)[C@@H]2[C@H](Cc3ccc(OC)c(O)c3)CC[C@H]12 (racemic) | 0.0092 µM
C=C1C=CC(=O)[C@@H]2[C@H](Cc3ccccc3)CC[C@H]12 (racemic) | 0.237 µM

The remaining lines, values ahead:

IC50 | Compound
0.0774 µM | C=C1C=CC(=O)[C@@H]2[C@H](Cc3ccc(OCOC)cc3)CC[C@H]12 (racemic)
0.0308 µM | C=C1C=CC(=O)[C@@H]2[C@H](Cc3ccc(O)cc3)CC[C@H]12 (racemic)
0.0004 µM | C=C[C@@H]1C[C@@H](Cc2ccc(OC)c(O)c2)[C@H]2C(=O)C=CC(=C)[C@H]21 (racemic)
0.04 µM | C=C1C=CC(=O)[C@@H]2[C@H](Cc3ccc(OCOC)c(F)c3)CC[C@H]12 (racemic)
0.00168 µM | C=C1C=CC(=O)[C@@H]2[C@H](Cc3ccc(OC)c(F)c3)CC[C@H]12 (racemic)
